Data reported in paper PMC10624687 (Nature Communications, 2023).

What was measured:
[1] = target: T1, HsClpP (mitochondrial caseinolytic protease P) (Homo sapiens, UniProt Q16740); test: biochemical; set-up: gene CLPP
[2] = target: SaClpP (Staphylococcus aureus ClpP) (Staphylococcus aureus, UniProt Q2G036, I91W); test: PAGE-based α-casein hydrolysis activation assay; DSF; format: biochemical
[3] = target: T2, HsClpP (mitochondrial caseinolytic protease P) (Homo sapiens, UniProt Q16740, W146I); test: biochemical
T2 construct: gene CLPP
T2 sequence (Q16740 57-277 W146I): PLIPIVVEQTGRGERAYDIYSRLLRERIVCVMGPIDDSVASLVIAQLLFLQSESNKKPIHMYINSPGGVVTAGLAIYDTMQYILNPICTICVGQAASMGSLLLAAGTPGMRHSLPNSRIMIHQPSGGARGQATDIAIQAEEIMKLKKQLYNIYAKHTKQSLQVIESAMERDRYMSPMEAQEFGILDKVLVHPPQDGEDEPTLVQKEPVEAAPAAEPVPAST

[4] = target: T3, HsClpP (mitochondrial caseinolytic protease P) (Homo sapiens, UniProt Q16740, Y118A); test: PAGE-based α-casein degradation assay; NanoDSF; format: biochemical
T3 construct: gene CLPP
T3 sequence (Q16740 57-277 Y118A): as the sequence (Q16740 57-277 W146I) above, with Y62A, I90W counted along it

[5] = target: T1, HsClpP (mitochondrial caseinolytic protease P); test: X-ray crystal structure at […] Å; DSF (ΔTm […] °C); EC50 from FITC-casein FI protease assay; CETSA; format: biochemical; set-up: gene CLPP; HsClpPΔ56 (N-terminus 56 amino acids truncated)

T1 sequence (Q16740 57-277): as the sequence (Q16740 57-277 W146I) above, with I90W counted along it

Row | SMILES | EC50 [1] | EC50 [2] | EC50 [3] | PAGE-based α-casein degradation assay; NanoDSF [4] | EC50 [5]
1 | O=C(COc1ccc(Cl)cc1)N1CCN(Cc2cc(F)cc(F)c2)CC1 [ZK11] | 0.45 µM | 8.4 µM | 42.4 µM | – | –
2 | O=C(NCc1ccc(Br)cc1)N1CCN(Cc2cc(F)cc(F)c2)CC1 [ZK53] | – | 5.4 µM | 11.8 µM | ZK53 is still effective to promote Y118A ClpP for α-casein degradation in PAGE assay | 0.22 µM
